Several values for one entry are separate records, joined by “and”; a condition that tells them apart may be missing. Identical values can stand only once. Entries after “also recorded” stand apart in the source; their conditions may differ. Like-named read-outs stand apart in the source and are kept apart here.
Assays:
[1] = Toxicity / body weight in tumor-bearing mice; format: in vivo
Method: All regimens were administered daily (qd). Body weights were evaluated periodically during treatment. Each point represents the mean±SEM of eight tumors. […] All regimens were administered daily (qd). Body weights were evaluated periodically during treatment. Each point represents the mean±SEM of eight tumors.
Daily examinations into the health status of each animal were also conducted. Body weights were checked every three days. Food and water was supplied daily according to the animal husbandry procedures of the facility. Treatment producing>20% lethality and or >20% net body weight loss were considered toxic. Results are expressed as mean tumor volume (mm^3)±SE. P Values<0.05 are considered to be statistically relevant.

[2] = Pharmacokinetics in mice of particle size formulations; format: in vivo; conditions: particle size 125-150 micron versus 2 and 20 micron, 100 mg/kg oral, 20% Gelucire 44/14 and 1% Tween 80
Method: In an experiment, micronized Compound 1 prepared in step 6 of Example 2 with a mean particle size of 2 micron, 20 microns, 150 microns were formulated as suspensions in 20% Gelucire 44/14 and 1% Tween 80 and administered orally to mice at 100 mg/kg. Each time point represents the average of 3 mice (FIG. 16).

advanced solid tumors = assay: Phase I clinical trial: tumor response (RECIST 1.1) and progression free survival; format: in vivo, human
Text: As of Feb. 7, 2011, 42 cancer patients with various advanced solid tumors who have failed chemotherapies were enrolled in the study.
Of the 42 patients dosed, 24 were evaluable for tumor response as of Feb. 7, 2011; 16 (16/24 evaluable patients) achieved stable disease (8 to 75+ weeks).

CD34+ BM Erythroid = assay: IC50 versus treatment time, CD34+ BM Erythroid; format: cell-based; conditions: normal cells CD34+ BM Erythroid, treatment time 12-24 h
Method: (§1) The studies described herein discovered counter-intuitively that cancer cells and cancer stem cells requires much shorter exposure than normal cells to be killed by Compound 1. Normal cells can tolerate up to 24 hours of exposure to Compound 1. Furthermore, the studies here discovered that normal cells can recover after a short period of no-drug exposure, while cancer cells cannot recover once they are exposed to a certain concentration of the Compound 1 for at least 2 hours. Based on these studies, a special pharmacokinetic exposure [termed selective pharmacokinetic profile (SPP), or preferred pharmacokinetic profile (PPP), which is used interchangeably in this publication] was designed for Compound 1 using the data shown below in Table 14 for achieving selective antitumor activity in patients (FIG. 24).

CD34+ BM Myeloid = assay: IC50 versus treatment time, CD34+ BM Myeloid; format: cell-based; conditions: normal cells CD34+ BM Myeloid, treatment time 12-24 h
Method: as §1

PMBCs = assay: IC50 versus treatment time, PMBCs; format: cell-based; conditions: normal cells PMBCs
Method: as §1

DU145 = assay: IC50 versus treatment time, DU145; format: cell-based; conditions: DU145 cancer cells
Method: as §1

[3] = system: cancer cells or cancer stem cells; assay: In vitro IC50 on cancer cells or cancer stem cells; format: cell-based
[4] = system: cancer cells and normal cells; assay: Exposure time/concentration selectivity, cancer cells versus normal cells; format: cell-based
Method: as §1
Preferably, cancer cells must be exposed to a Compound of the Invention such as Compound 1, particles, polymorphs and/or purified forms thereof for 4 hours at concentration greater than 0.2 μM in order to induce cancer cell death. […] A reduced particle size of Compound 1 achieved this preferred pharmacokinetic pattern and selective activity.
The selective activity of Compound 1 in killing cancer cells and sparing normal cells is represented by the data in Table 14 and illustrated in FIG. 24.

[5] = system: cancer cells and normal cells; conditions: Hirai et al. 1999; Takano et al. 2009; previous studies; cited from earlier work
[6] = previous studies; cited from earlier work
[7] = patient 0001, total daily dose 20 mg qd, Colon adenocarcinoma
[8] = patient 0013, total daily dose 400 mg bid, Gastric adenocarcinoma
[9] = patient 0014, total daily dose 400 mg bid, Ovarian cancer
[10] = patient 0015, total daily dose 400 mg bid, Colon adenocarcinoma
[11] = patient 0020, total daily dose 600 mg bid, Breast Cancer

CC(=O)c1cc2c(o1)C(=O)c1ccccc1C2=O [Compound 1, 2-acetyl-4H,9H-naphtho[2,3-b]furan-4,9-dione]
mice died during the treatment ([1]; about 90% pure, FaDu experiment (upper panel)): 4 mice | mice died during the treatment ([1]; about 90% pure, MDA-231 experiment (lower panel)): 3 mice | toxicity ([1]; about 90% pure, in GELUCIRE, po qd, FaDu or MDA-231 bearing mice (FIG. 13)): Significant toxicity | toxicity ([1]; composition of particle size less than 5 micron, mice): no observed toxicity | tolerability / toxicity ([1]; higher purity (about 95% or greater), po qd, FaDu or MDA-231 bearing mice (FIG. 14)): well-tolerated and showed no signs of toxicity | plasma exposure [2]: lower level of exposure | patients showing prolonged SD (>12 weeks) (advanced solid tumors; RECIST 1.1): 12 patients | evaluable patients with SD/MR by RECIST (advanced solid tumors; as of Feb. 7, 2011): 16/24 and 16 out of 24 | progression free survival (advanced solid tumors; blood drug concentration above 1 uM, diverse cancers (FIG. 23)): increase in progression free survival | patients in whom new metastatic lesions were prevented (advanced solid tumors; of patients dosed): 83% | patients showing no metastatic tumors (advanced solid tumors; out of 24 evaluable patients with advanced refractory cancers): over 80% | response of colon cancer metastatic lesion to kidney (advanced solid tumors; patient 0001, 20 mg daily (FIG. 19)): complete regression; also recorded: signs of potent antitumor activity | New Lesions (advanced solid tumors; [7]): 1 | regression (advanced solid tumors; [7]): (regression 27.6%) | New Lesions (advanced solid tumors; patient 0002, total daily dose 40 mg qd, Gastric adenocarcinoma): 3 | New Lesions (advanced solid tumors; patient 0003, total daily dose 80 mg qd, Head and Neck carcinoma): 0 | New Lesions (advanced solid tumors; patient 0004, total daily dose 80 mg bid, Colon adenocarcinoma): 0 | New Lesions (advanced solid tumors; patient 0006, total daily dose 160 mg bid, Lung adenocarcinoma): 0 | New Lesions (advanced solid tumors; patient 0008, total daily dose 320 mg bid, Colon adenocarcinoma): 2 | New Lesions (advanced solid tumors; patient 0010, total daily dose 320 mg bid, Colon adenocarcinoma): 0 | New Lesions (advanced solid tumors; patient 0011, total daily dose 320 mg bid, Angiosarcoma): 0 | New Lesions (advanced solid tumors; patient 0012, total daily dose 320 mg bid, Prostate cancer): 0 | Best Response, remark (advanced solid tumors; [8]): (signs of regression) | New Lesions (advanced solid tumors; [8]): 0 | Best Response, remark (advanced solid tumors; [9]): (CA 125 normalization) | New Lesions (advanced solid tumors; [9]): 0 | CEA change (Best Response, remark) (advanced solid tumors; [10]): (CEA? >30-50%) | New Lesions (advanced solid tumors; [10]): 0 | New Lesions (advanced solid tumors; patient 0016, total daily dose 600 mg bid, Pancreatic adenocarcinoma): 0 | Best Response, remark (advanced solid tumors; [11]): (hollow tumor) | New Lesions (advanced solid tumors; [11]): 0 | New Lesions (advanced solid tumors; patient 0021, total daily dose 800 mg bid, Chondrosarcoma): 0 | New Lesions (advanced solid tumors; patient 0022, total daily dose 800 mg bid, Prostate cancer): 0 | New Lesions (advanced solid tumors; patient 0023, total daily dose 800 mg bid, Adenocorticoid): 0 | New Lesions (advanced solid tumors; patient 0024, total daily dose 1000 mg bid, Rectal cancer): 0 | New Lesions (advanced solid tumors; patient 0027, total daily dose 1400 mg bid, Colon adenocarcinoma): 2 | New Lesions (advanced solid tumors; patient 0032, total daily dose 200 mg tid, Colon adenocarcinoma): 0 | New Lesions (advanced solid tumors; patient 0037, total daily dose 500 mg tid, Colon adenocarcinoma): 0 | progression free survival (advanced solid tumors; patients with exposure above 1.6 uM for at least 4 hours): improvement in progression free survival | IC50 (CD34+ BM Erythroid): > 30000 nM | IC50 (CD34+ BM Myeloid): > 30000 nM | IC50 (PMBCs; treatment time 12-24 h): 14000 nM | IC50 (PMBCs; treatment time 72 h): 3000 nM | IC50 (DU145; treatment time 12-24 h): < 200 nM | IC50 (DU145; Homo sapiens, DU-145, treatment time 4-12 h): < 200 nM | IC50 ([3]; preclinical studies, read-out: IC50 to kill cancer cells or cancer stem cells): 100 to 200 nM | IC50 ([3]; read-out: IC50 of the compound in vitro): 30 to 500 nM | selectivity ([4]; concentration greater than from about 0.5 to about 3 μM for less than 24 hours): selective activity in killing cancer cells and sparing normal cells | selectivity ([4]; concentrations of about or above 0.2 and 30 μM for from about 4 hours up to about 24 hours): selective killing of cancer cells and sparing of normal cells | killing of cancer cells ([4]; concentrations of less than 0.5 μM, regardless of exposure time): no killing of cancer cells | selectivity ([4]; continuous exposure for greater than 24 hours): loss of selectivity | exposure time tolerated by normal cells ([4]; normal cells): up to 24 hours | toxicity to cancer cells and normal cells [5]: equally toxic to normal and cancer cells; also recorded: equally toxic to cancer cells and normal cells | antitumor activity in animal model [6]: no antitumor activity was observed

Source: patent publication US9084766B2, “Compounds and compositions for targeting cancer stem cells” (Boston Biomedical, Inc., priority 2010, dated 2015)
